Our source for the T/C values is PubChem BioAssay AID330 (DTP/NCI, 2004).

Values joined by “and” are separate entries in the source; they are usually repeats but may differ in a detail not shown here. Identical values can stand only once. Toxic doses and inconclusive results are not listed.

In this assay the test system is P388 leukemia ip, CD2F1 mice, survival T/C. As to the kind of experiment: NCI In Vivo Anticancer Drug Screen. Data for tumor model P388 Leukemia (intraperitoneal) in CD2F1 (CDF1) mice. The conditions noted are these: endpoint: median survival time, higher = longer survival. The procedure, abridged:
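Mice carrying the transplanted tumor received test compound or vehicle. Survival was recorded in each group, and the value is the treated-group measurement divided by that of the vehicle-treated control group.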

[1] abbreviates: dose: 25.0 mg/kg/injection, schedule: Q01DX009 (ip), vehicle: saline with Tween-80.
[2] abbreviates: dose: 12.5 mg/kg/injection, schedule: Q01DX009 (ip), vehicle: saline.
The mark [3] stands for this setting: dose: 25.0 mg/kg/injection, schedule: Q01DX009 (ip), vehicle: saline.
[4] abbreviates: dose: 50.0 mg/kg/injection, schedule: Q01DX009 (ip), vehicle: saline.
The mark [5] stands for this setting: dose: 6.25 mg/kg/injection, schedule: Q01DX009 (ip), vehicle: saline.

`NC(C/[N+]([O-])=N/O)C(=O)O` (centres undefined): the T/C reads like this: (dose: 8.78 mg/kg/injection, schedule: Q01DX010 (ip), vehicle: alkali diluted with saline) 119 % of control; (dose: 9.38 mg/kg/injection, schedule: Q01DX009 (ip), vehicle: alkali diluted with saline) 120 % of control; (dose: 13.2 mg/kg/injection, schedule: Q01DX010 (ip), vehicle: alkali diluted with saline) 124 % of control; (dose: 15.6 mg/kg/injection, schedule: Q01DX005 (ip), vehicle: saline with Tween-80) 124 % of control; (dose: 15.6 mg/kg/injection, schedule: Q01DX005 (iv), vehicle: saline with Tween-80) 107 % of control; (dose: 27.0 mg/kg/injection, schedule: Q01DX009 (ip), vehicle: alkali diluted with saline) 161 % of control. Also, the T/C reads like this: (dose: 30.0 mg/kg/injection, schedule: Q01DX005 (ip), vehicle: alkali diluted with saline) 161 % of control; (dose: 31.3 mg/kg/injection, schedule: Q01DX005 (iv), vehicle: saline with Tween-80) 103 % of control; (dose: 37.5 mg/kg/injection, schedule: Q01DX009 (ip), vehicle: alkali diluted with saline) 161 % of control and 162 % of control; (dose: 40.0 mg/kg/injection, schedule: Q01DX005 (ip), vehicle: alkali diluted with saline) 150 % of control; (dose: 40.0 mg/kg/injection, schedule: Q01DX009 (ip), vehicle: alkali diluted with saline) 165 % of control; (dose: 45.0 mg/kg/injection, schedule: Q01DX009 (ip), vehicle: alkali diluted with saline) 152 % of control and 166 % of control. For the same compound, the T/C was 185 % of control (dose: 60.0 mg/kg/injection, schedule: Q01DX005 (ip), vehicle: alkali diluted with saline); 111 % of control (dose: 62.5 mg/kg/injection, schedule: Q01DX005 (iv), vehicle: saline with Tween-80); 150 % of control (dose: 62.5 mg/kg/injection, schedule: Q01DX009 (ip), vehicle: saline); 163 % of control (dose: 62.5 mg/kg/injection, schedule: Q01DX009 (ip), vehicle: water); 107 % of control (dose: 66.7 mg/kg/injection, schedule: Q01DX009 (ip), vehicle: alkali diluted with saline); 166 % of control (dose: 75.0 mg/kg/injection, schedule: Q01DX009 (ip), vehicle: alkali diluted with water). Also, the T/C is, setting by setting: (dose: 80.0 mg/kg/injection, schedule: Q01DX005 (ip), vehicle: alkali diluted with saline) 182 % of control; (dose: 80.0 mg/kg/injection, schedule: Q01DX009 (ip), vehicle: alkali diluted with saline) 99 % of control; (dose: 100.0 mg/kg/injection, schedule: Q01DX010 (ip), vehicle: alkali diluted with saline) 92 % of control; (dose: 108.0 mg/kg/injection, schedule: Q04DX003 (ip), vehicle: alkali diluted with saline) 161 % of control; (dose: 112.5 mg/kg/injection, schedule: Q04DX003 (ip), vehicle: alkali diluted with saline) 150 % of control; (dose: 120.0 mg/kg/injection, schedule: Q01DX005 (ip), vehicle: alkali diluted with saline) 70 % of control. In addition, the T/C is 157 % of control (dose: 125.0 mg/kg/injection, schedule: Q01DX005 (ip), vehicle: saline with Tween-80); 107 % of control (dose: 125.0 mg/kg/injection, schedule: Q01DX005 (iv), vehicle: saline with Tween-80); 66 % of control and 86 % of control (dose: 125.0 mg/kg/injection, schedule: Q01DX009 (ip), vehicle: alkali diluted with saline); 154 % of control (dose: 125.0 mg/kg/injection, schedule: Q01DX009 (ip), vehicle: saline); 96 % of control (dose: 150.0 mg/kg/injection, schedule: Q01DX009 (ip), vehicle: alkali diluted with water); 166 % of control (dose: 180.0 mg/kg/injection, schedule: Q04DX003 (ip), vehicle: alkali diluted with saline). Besides, the T/C was 155 % of control (dose: 200.0 mg/kg/injection, schedule: Q04DX003 (ip), vehicle: alkali diluted with water); 178 % of control (dose: 225.0 mg/kg/injection, schedule: Q04DX003 (ip), vehicle: alkali diluted with saline); 175 % of control (dose: 300.0 mg/kg/injection, schedule: Q04DX003 (ip), vehicle: alkali diluted with saline); 115 % of control (dose: 450.0 mg/kg/injection, schedule: Q04DX003 (ip), vehicle: alkali diluted with saline); 198 % of control (dose: 500.0 mg/kg/injection, schedule: Q04DX003 (ip), vehicle: alkali diluted with saline).

With `COc1cc(C2=N/C(=C/c3cccs3)C(=O)O2)cc(OC)c1OC`, the T/C reads like this: (dose: 6.25 mg/kg/injection, schedule: Q01DX009 (ip), vehicle: Klucel (hydroxypropylcellulose) (HPC)) 98 % of control; (dose: 12.5 mg/kg/injection, schedule: Q01DX009 (ip), vehicle: Klucel (hydroxypropylcellulose) (HPC)) 108 % of control; (dose: 25.0 mg/kg/injection, schedule: Q01DX009 (ip), vehicle: Klucel (hydroxypropylcellulose) (HPC)) 106 % of control.

On to `Clc1ccc(CN2Cc3ccc4cccnc4c3OC2c2ccncc2)cc1Cl` (centres undefined), for which the T/C is, setting by setting: (dose: 100.0 mg/kg/injection, schedule: Q04DX003 (ip), vehicle: Klucel (hydroxypropylcellulose) (HPC)) 100 % of control; (dose: 200.0 mg/kg/injection, schedule: Q04DX003 (ip), vehicle: Klucel (hydroxypropylcellulose) (HPC)) 96 % of control; (dose: 400.0 mg/kg/injection, schedule: Q04DX003 (ip), vehicle: Klucel (hydroxypropylcellulose) (HPC)) 103 % of control.

Consider `CC(=O)c1ccccc1N=Nc1ccc(N(CCCl)CCCl)cc1C`, for which the T/C reads like this: under setting [1], 98 % of control; (dose: 50.0 mg/kg/injection, schedule: Q01DX009 (ip), vehicle: saline with Tween-80) 104 % of control and 108 % of control; (dose: 100.0 mg/kg/injection, schedule: Q01DX009 (ip), vehicle: saline with Tween-80) 96 % of control; (dose: 200.0 mg/kg/injection, schedule: Q01DX009 (ip), vehicle: saline with Tween-80) 123 % of control.

`Cc1ccc2c(ccc(/C=C/c3ccc(O)c4ncccc34)[n+]2C)c1`: the T/C runs as follows: (dose: 12.5 mg/kg/injection, schedule: Q01DX009 (ip), vehicle: saline with Tween-80) 116 % of control; under setting [1], 105 % of control.

On to `O=C(CCl)NCc1ccccc1`, for which the T/C is, setting by setting: (dose: 100.0 mg/kg/injection, schedule: Q04DX003 (ip), vehicle: saline) 98 % of control; (dose: 200.0 mg/kg/injection, schedule: Q04DX003 (ip), vehicle: saline) 100 % of control.

On to `CCC/C(=N\NC(=S)N(C)C)c1ccccn1`, for which the T/C (dose: 12.5 mg/kg/injection, schedule: Q01DX005 (ip), vehicle: saline with Tween-80) was 103 % of control; the T/C (dose: 25.0 mg/kg/injection, schedule: Q01DX005 (ip), vehicle: saline with Tween-80) is 107 % of control; the T/C (dose: 50.0 mg/kg/injection, schedule: Q01DX005 (ip), vehicle: saline with Tween-80) is 115 % of control and 117 % of control.

For the compound `O=C(O)COCC(F)(F)C(F)(F)C(F)(F)COCC(=O)O`, the T/C (dose: 176.0 mg/kg/injection, schedule: Q04DX003 (ip), vehicle: saline) is 100 % of control; the T/C (dose: 264.0 mg/kg/injection, schedule: Q04DX003 (ip), vehicle: saline) is 91 % of control; the T/C (dose: 400.0 mg/kg/injection, schedule: Q04DX003 (ip), vehicle: saline) was 100 % of control.

Turning to `CC(=O)NNC(=O)C(Cl)Cl`, the T/C was 92 % of control under setting [2]; 89 % of control under setting [3]; 101 % of control and 90 % of control under setting [4].

Regarding `C1CCC(N=C(NC2CCCCC2)N2CCOCC2)CC1`, the T/C is 99 % of control under setting [5], 99 % of control under setting [2], 100 % of control under setting [3] and 89 % of control under setting [4].

On to `Nc1ccccc1N=C(CC(=O)c1ccco1)C(F)(F)F`, for which the T/C was 99 % of control under setting [5]; 91 % of control under setting [3]; 88 % of control (dose: 100.0 mg/kg/injection, schedule: Q01DX009 (ip), vehicle: saline); 105 % of control (dose: 200.0 mg/kg/injection, schedule: Q01DX009 (ip), vehicle: saline).

Consider `O=C1C(N=Nc2ccc(S(=O)(=O)Nc3ccccn3)cc2)C(=O)N(c2ccc(Cl)cc2)C(=S)N1c1ccc(Cl)cc1`, for which the T/C (dose: 50.0 mg/kg/injection, schedule: Q01DX005 (ip), vehicle: saline) is 105 % of control; the T/C (dose: 100.0 mg/kg/injection, schedule: Q01DX005 (ip), vehicle: saline) is 114 % of control; the T/C (dose: 200.0 mg/kg/injection, schedule: Q01DX005 (ip), vehicle: saline) was 112 % of control.
